Assay results from patent publication US12145923B2, “Tetrahydroisoquinoline compound, preparation method therefor, pharmaceutical composition containing same, and use thereof” (SHANGHAI INSTITUTE OF MATERIA MEDICA, CHINESE ACADEMY OF …, priority 2018, dated 2024).
Read-outs that look alike come from different tables or passages of the source.

Target: Human PDE4D catalytic domain (Homo sapiens (Human), UniProt Q08499)
Assay: Scintillation Proximity Assay (SPA), inhibition of PDE4D catalytic domain activity
Assay type: biochemical
Conditions: read-out: PDE4D enzyme activity inhibition rate %

Chain of Human PDE4D catalytic domain (Q08499 386-715): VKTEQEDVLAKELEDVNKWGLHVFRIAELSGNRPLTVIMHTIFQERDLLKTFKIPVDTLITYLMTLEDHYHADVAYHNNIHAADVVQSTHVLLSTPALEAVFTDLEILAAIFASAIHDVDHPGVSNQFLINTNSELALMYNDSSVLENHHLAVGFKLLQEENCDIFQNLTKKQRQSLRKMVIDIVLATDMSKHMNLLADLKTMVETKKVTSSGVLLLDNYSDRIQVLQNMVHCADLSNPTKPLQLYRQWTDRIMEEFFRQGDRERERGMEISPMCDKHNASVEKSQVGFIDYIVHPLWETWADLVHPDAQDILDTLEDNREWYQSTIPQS

Row | Structure (SMILES) | inhibition at 1 µM [%] | inhibition at 1 µM (Compound concentration: 1 μM) [%]
1 | COC(=O)c1cc2c(cc1OC)[C@H](CCc1c[nH]c3ccc(OC)cc13)N(C=O)CC2 [(S)-C67, methyl-(S)-2-formyl-7-methoxy-1-(2-(5-methoxy-1H-indol-3-yl)ethyl)-1,2,3,4-tetrahydroisoquinoline-6-carboxylate] | 85.9 | 
2 | COc1cc2c(cc1OC)[C@H](CCc1csc3ccccc13)N(C=O)CC2 [(S)-C61, (S)-1-(2-(benzo[b]thiothiophen-3-yl)ethyl)-6,7-dimethoxy-3,4-dihydroisoquinoline-2(1H)-formaldehyde] |  | 70.8
3 | COC(=O)c1cc2c(cc1OC)CCN(C=O)[C@H]2CCc1c[nH]c2ccc(OC)cc12 [(S)-C66, methyl-(S)-2-formyl-6-methoxy-1-(2-(5-methoxy-1H-indol-3-yl)ethyl)-1,2,3,4-tetrahydroisoquinoline-7-carboxylate] | 88.4 | 
4 | CCOc1cc2c(cc1OC)CCN(S(=O)(=O)c1cccnc1)[C@H]2CCc1c[nH]c2ccc(OC)cc12 [(S)-C55] |  | 20.5
5 | CCOc1cc2c(cc1OC)CCN(C(=O)C(F)F)[C@H]2CCc1c[nH]c2ccc(OC)cc12 [(S)-C59, (S)-7-ethoxy-1-(2-(5-methoxy-1H-indol-3-yl)ethyl)-6-methoxy-3,4-dihydroisoquinolin-2(1H)-2,2-difluoroethane-1-one] |  | 42.4
6 | COc1ccc2[nH]cc(CC[C@H]3c4cc(C(F)F)c(OC)cc4CCN3C=O)c2c1 [(S)-C71, (S)-7-difluoromethyl-1-(2-(5-methoxy-1H-indol-3-yl)ethyl)-6-methoxy-3,4-dihydroisoquinoline-2(1H)-formaldehyde] | 81.8 | 
7 | CCOc1cc2c(cc1OC)CCN(S(=O)(=O)c1ccc(Br)c(F)c1)[C@H]2CCc1c[nH]c2ccc(OC)cc12 [(S)-C56, (S)-7-ethoxy-6-methoxy-1-(2-(5-methoxy-1H-indol-3-yl)ethyl)-2-(3-fluoro-4-bromophenyl) sulfonyl-1,2,3,4-tetrahydroisoquinoline] |  | 66.4
8 | CCOc1cc2c(cc1OC)CCN(S(=O)(=O)c1ccc(F)cc1)[C@H]2CCc1c[nH]c2ccc(OC)cc12 [(S)-C58, (S)-7-ethoxy-6-methoxy-1-(2-(5-methoxy-1H-indol-3-yl)ethyl)-2-(4-fluorophenyl)sulfonyl-1,2,3,4-tetrahydroisoquinoline] |  | 49.7
9 | CCOc1cc2c(cc1OC)CCN(C=O)[C@H]2CCc1c[nH]c2ccc(OC(F)F)cc12 [(S)-C77, (S)-7-ethoxy-6-methoxy-1-(2-(5-difluoromethoxy-1H-indol-3-yl)ethyl)-3,4-dihydroisoquinoline-2(1H)-formaldehyde] |  | 93.5
10 | COc1ccc2[nH]cc(CC[C@H]3c4cc(C(N)=O)c(OC)cc4CCN3C=O)c2c1 [(S)-C70, (S)-2-formyl-6-methoxy-1-(2-(5-methoxy-1H-indol-3-yl)ethyl)-1,2,3,4-tetrahydroisoquinoline-7-carboxamide] |  | 83.8
11 | CCOc1cc2c(cc1OC)CCN(C=O)[C@H]2CCc1c[nH]c2ccc(C#N)cc12 [(S)-C65, (S)-7-ethoxy-6-methoxy-1-(2-(5-cyano-1H-indol-3-yl)ethyl)-3,4-dihydroisoquinoline-2(1H)-formaldehyde] |  | 68.7
12 | CCOc1cc2c(cc1OC)CCN(S(=O)(=O)C1CCCCC1)[C@H]2CCc1c[nH]c2ccc(OC)cc12 [(S)-C49, (S)-7-ethoxy-6-methoxy-1-(2-(5-methoxy-1H-indol-3-yl)ethyl)-2-cyclohexylsulfonyl-1,2,3,4-tetrahydroisoquinoline] |  | 70.8
13 | CCOc1cc2c(cc1OC)CCN(S(=O)(=O)C1CC1)[C@H]2CCc1c[nH]c2ccc(OC)cc12 [(S)-C48, (S)-7-ethoxy-6-methoxy-1-(2-(5-methoxy-1H-indol-3-yl)ethyl)-2-cyclopropylsulfonyl-1,2,3,4-tetrahydroisoquinoline] |  | 62
